The structures appear in SMILES notation.

One assay relates to MEIS1 gene expression. The assay can be described thus: Inhibition of MEIS1 gene expression in human tumor cells (qRT-PCR), MV-4-11. Format: cell-based. The conditions noted are these: MV4-11, MV-4-11 (carrying MLL-AF4), 48 hours of incubation, relative MEIS1 gene expression vs GAPDH, read-out: MV-4-11 MEISI EC50. A digest of the protocol: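 MV-4-11 (MLL-AF4; IMDM, 10% FBS), MOLM-13 (MLL-AF9) and OCI-AML3 (NPM1c) (RPMI-1640, 20% FBS) seeded at 100,000 cells/well and treated 48 h with serially diluted compound. MEIS1 mRNA measured by one-step probe qRT-PCR from total RNA, triplicates, GAPDH primer/probe included; EC50 for inhibition of relative MEIS1 expression.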

The test system of assay [1] is MOLM-13 (carrying MLL-AF9). The assay is described as follows: Inhibition of proliferation of human tumor cells (Alamar Blue, 7 days), MOLM-13. It counts as cell-based. The conditions noted are these: Homo sapiens, MOLM-13 cells (carrying MLL-AF9), method calls the value GI50. A digest of the protocol:
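GI50 values reflect growth inhibition over 7 days, read by Alamar Blue. Seeding density was 4,000 cells/well except KG-1a (3,000 cells/well); each line grew in its own FBS-containing medium at 37°C.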

Regarding `COCCN(C)CCCC(C(C)C)N1CC(c2cc(-c3ccc(F)cc3C(=O)N(CC(F)F)C(C)C)c3c(F)nc(C)n3c2)C1` (stereo not drawn) [Example 142, N-(2,2-difluoroethyl)-5-fluoro-2-[1-fluoro-6-(1-{6-[(2-methoxyethyl)(methyl)amino]-2-methylhexan-3-yl}azacyclobutan-3-yl)-3-methylimidazo[1,5-a]pyridin-8-yl]-N-(isopropyl)benzamide], in the assay with MEIS1 gene expression, the EC50 was determined as 6 nM. Moreover, the IC50 in assay [1] (168 h) was determined as 10 nM.
The matching figures for `CCN1CCN(CCC[C@H](C(C)C)N2CC(c3cc(-c4ccc(F)cc4C(=O)N4CCOC[C@H]4C)c4cnc(C)n4c3)C2)CC1` [Example 324-2]: 7.3 nM and 9.2 nM.
The matching figures for `CCN(C(=O)c1cc(F)ccc1-c1cc(C2CN([C@H](CCCN3CCN(C)CC3)C(C)C)C2)cn2c(C)ncc12)C(C)C` [Example 310-2, N-ethyl-5-fluoro-2-(3-methyl-6-{1-[(3R)-2-methyl-6-(4-methylpiperazin-1-yl)hexan-3-yl]azacyclobutan-3-yl}imidazo[1,5-a]pyridin-8-yl)-N-(isopropyl)benzamide]: 5 nM and 6.2 nM.
Consider `COCCN(C)CCC[C@H](C(C)C)N1CC(c2cc(-c3ccc(F)cc3C(=O)N3CCOC[C@H]3C)c3c(F)nc(C)n3c2)C1` [Example 200-1], for which the EC50 in the assay on MEIS1 gene expression was determined as 12 nM. Further, in assay [1] (168 h), the IC50 was determined as 10.2 nM.
The matching figures for `CCN(C(=O)c1cc(F)ccc1-c1cc(C2CCN(Cc3ccc(-c4cc(OC)c(OC)nn4)cc3)C2)cn2c(C)ncc12)C(C)C` (stereo not drawn) [Example 83]: 24 nM and 33 nM.
With `Cc1nc(F)c2c(-c3ccc(F)cc3C(=O)N3CCOC[C@H]3C)cc(C3CN([C@H](CCCN4CCN(C5CC5)CC4)C(C)C)C3)cn12` [Example 350], the EC50 with MEIS1 gene expression was 6.8 nM. In assay [1] (168 h), the IC50 amounted to 4.6 nM.
For `COCCN(C)CCC[C@H](C(C)C)N1CC(c2cc(-c3ccc(F)cc3C(=O)N3[C@H](C)COC[C@H]3C)c3cnn(C)c3c2)C1` [Example 186-2, [(4R)-4-[3-(4-{2-[(3R,5R)-3,5-dimethylmorpholin-4-carbonyl]-4-fluorophenyl}-1-methyl-1H-indazol-6-yl)azacyclobutan-1-yl]-5-methylhexyl](2-methoxyethyl)methylamine], the concentration giving a half-maximal response (EC50) in the assay on MEIS1 gene expression is 3.8 nM. Further, in assay [1] (168 h), the IC50 was determined as 28 nM.
The matching figures for `CCN(C(=O)c1cc(F)ccc1-c1cc(C2CN([C@H](CCCN3CCN(C(C)=O)CC3)C(C)C)C2)cn2c(C)ncc12)C(C)C` [Example 311-2, 2-(6-{1-[(3R)-6-(4-acetylpiperazin-1-yl)-2-methylhexan-3-yl]azacyclobutan-3-yl}-3-methylimidazo[1,5-a]pyridin-8-yl)-N-ethyl-5-fluoro-N-(isopropyl)benzamide]: 19 nM and 26 nM.
The like results for `CCN(C(=O)c1cc(F)ccc1-c1cc(C2CN(C[C@H]3CC[C@H](NS(=O)(=O)CC)CC3)C2)cn2c(C)nc(F)c12)C(C)C` [Example 137] were, in that order, 16 nM and 10 nM.
With `CO[C@H]1CCCN(CCC[C@H](C(C)C)N2CC(c3cc(-c4ccc(F)cc4C(=O)N4CCOC[C@H]4C)c4c(F)nc(C)n4c3)C2)C1` [Example 306], the EC50 in the assay on MEIS1 gene expression turned out to be 4.6 nM. Moreover, the IC50 in assay [1] (168 h) turned out to be 7.7 nM.
Take `COC1CCN(CCCC(C(C)C)N2CC(c3cc(-c4ccc(F)cc4C(=O)N4CCOCC4C)c4c(F)nc(C)n4c3)C2)C1` (stereo not drawn) [Example 201-1]: the EC50 in the assay with MEIS1 gene expression was determined as 3.4 nM. Moreover, in assay [1] (168 h), the IC50 is 5.1 nM.
The like results for `CCS(=O)(=O)N[C@H]1CC[C@H](CN2CC(c3cc(-c4ccc(F)cc4C(=O)N(CC(F)F)C(C)C)c4cnc(C)n4c3)C2)CC1` [Example 138] were, in that order, 15 nM and 7.6 nM.
Turning to `CCN(C(=O)c1cc(F)ccc1-c1cc(C2(F)CN(C(=O)C3NC4CCC3CC4)C2)cn2c(C)ncc12)C(C)C` [Example 75, N-ethyl-5-fluoro-2-(6-{3-fluoro-1-[(1R,3S,4S)-2-azabicyclo[2.2.2]octan-3-carbonyl]azacyclobutan-3-yl}-3-methylimidazo[1,5-a]pyridin-8-yl)-N-(isopropyl) benzamide], in the assay on MEIS1 gene expression, the concentration for a half-maximal effect (EC50) stood at 82 nM. In addition, in assay [1] (MOLM-13, 168 h), the IC50 is 78 nM.
With `CCN1CCN(CCC[C@H](C(C)C)N2CC(c3cc(-c4ccc(F)cc4C(=O)N4CCOC[C@H]4C)c4c(F)nc(C)n4c3)C2)CC1` [Example 277], the EC50 with MEIS1 gene expression is 6.5 nM. Also, in assay [1] (168 h), the IC50 amounted to 7.3 nM.
For the compound `CCN(C(=O)c1cc(F)ccc1-c1cc(C2CN([C@H](CCCN3CCN(C)CC3)C(C)C)C2)cn2c(C)nc(F)c12)C(C)C` [Example 312-2], the EC50 in the assay on MEIS1 gene expression came out at 5.7 nM. For the same compound, the IC50 in assay [1] (168 h) was 5.3 nM.
The like results for `CCN(C(=O)c1cc(F)ccc1-c1cc(C2CN([C@H](CN3CCN(CCO)CC3)C(C)C)C2)cn2c(C)ncc12)C(C)C` [Example 431, N-ethyl-5-fluoro-2-(6-{1-[(2S)-1-[4-(2-hydroxylethyl)piperazin-1-yl]-3-methylbutan-2-yl]azacyclobutan-3-yl}-3methylimidazo[1,5-a]pyridin-8-yl)-N-(isopropyl)benzamide] were, in that order, 5.5 nM and 15 nM.
Turning to `Cc1nc(F)c2c(-c3ccc(F)cc3C(=O)N3CCOC[C@H]3C)cc(C3CN([C@H](CCCN4C[C@H]5C[C@@H]4CO5)C(C)C)C3)cn12` [Example 353, (1R,4R)-5-[(4R)-4-[3-(1-fluoro-8-{4-fluoro-2-[(3R)-3-methylmorpholin-4-carbonyl]phenyl}-3-methylimidazo[1,5-a]pyridin-6-yl)azacyclobutan-1-yl]-5-methylhexyl]-2-oxa-5-azabicyclo[2.2.1]heptane], the EC50 in the assay on MEIS1 gene expression was determined as 7.4 nM. For the same compound, the IC50 in assay [1] (168 h) is 5.4 nM.
In the case of `CCS(=O)(=O)N[C@H]1CC[C@H](CN2CC(c3cc(-c4ccc(F)cc4C(=O)N4CCOC[C@H]4C)c4cnc(C)n4c3)C2)CC1` [Example 134, N-[(1r,4r)-4-{[3-(8-{4-fluoro-2-[(3R)-3-methylmorpholin-4-carbonyl]phenyl}-3-methylimidazo[1,5-a]pyridin-6-yl)azacyclobutan-1-yl]methyl}cyclohexyl]ethan-1-sulfonamide], in the assay on MEIS1 gene expression, the EC50 was determined as 55 nM. For the same compound, in assay [1] (168 h), the IC50 was 21 nM.
The like results for `Cc1nc(F)c2c(-c3ccc(F)cc3C(=O)N3CCOC[C@H]3C)cc(C3CN([C@H](CCCN4CCN(C)CC4)C(C)C)C3)cn12` [Example 275, (3R)-4-[5-fluoro-2-(1-fluoro-3-methyl-6-{1-[(3R)-2-methyl-6-(4-methylpiperazin-1-yl)hexan-3-yl]azacyclobutan-3-yl}imidazo[1,5-a]pyridin-8-yl)benzoyl]-3-methylmorpholine] were, in that order, 8.3 nM and 9.4 nM.
The matching figures for `CC(=O)N1CCN(CCC[C@H](C(C)C)N2CC(c3cc(-c4ccc(F)cc4C(=O)N4CCOC[C@H]4C)c4c(F)nc(C)n4c3)C2)CC1` [Example 265]: 54 nM and 25 nM.
The like results for `CO[C@@H]1CCN(CCC[C@H](C(C)C)N2CC(c3cc(-c4ccc(F)cc4C(=O)N4CCOC[C@H]4C)c4c(F)nc(C)n4c3)C2)C1` [Example 202] were, in that order, 3.5 nM and 11 nM.

Values taken from EP4782453A1 (Beyang Therapeutics Co., Ltd., priority 2023, dated 2025).
